Results as given in US9561238B2, “Pharmaceutical compositions comprising estetrol derivatives for use in cancer therapy” (Donesta Bioscience B. V., priority 2002, dated 2017).

How the values were obtained:
[1] = system: DMH-induced malignant colon tumours; details: previously published; cited from earlier work
human ERα = human ERα (Homo sapiens (Human), UniProt P03372); test: Competitive steroid binding assay, ERα; details: preference for binding to ERα protein over ERβ, from Ki values
[2] = system: DMBA-induced mammary tumours; test: 7,12-dimethyl-benz(a)anthracene (DMBA)-induced tumour model in rats; type: in vivo, rat
Procedure: In order to further assess the anti-tumour efficacy of the estrogenic substances of the present invention, estetrol was tested in the 7,12-dimethyl-benz(a)anthracene (DMBA)-induced tumour model in rats. This model, originally developed by Huggins et al., 1961 (Nature, 19, 204-207), has been widely used and is a generally accepted model with predictive value for anti-tumour agents in humans.
Eighty-four female Sprague-Dawley rats (Harlan, The Netherlands) were group housed, maintained in a 12-hr light/dark environment, and fed a Soya Free Diet (SDS England) and water ad libitum. Animals were weighed on a weekly basis. One week prior to induction of mammary carcinoma, 12 animals (aged 43 days) were surgically castrated via removal of the ovaries. At the age of 50 days, all animals were administered a single oral dose of 16 mg DMBA to induce tumour development. […]
During the treatment period of 8 weeks, the emergence of palpable tumours and number of tumours were determined weekly. […]

[3] = system: DMH-induced malignant colon tumours; test: 1,2 dimethylhydrazine (DMH)-induced colon cancer in ovariectomized female rats; type: in vivo, rat; details: estetrol orally 0.1 to 3.0 mg/kg/day; necropsy 15 weeks after first DMH
Procedure: A study is performed to examine the effect of estetrol on 1,2 dimethylhydrazine (DMH)-induced colon cancer in ovariectomized female rats.
DMH-induced cancer development is chosen as a model of “estrogen-suppressed tumours”, because it mimics the human situation of colon carcinomas closely:
One week prior to induction of colon carcinomas, fifty sexually mature female Sprague-Dawley rats, weighing between 150 and 200 gram (Harlan, The Netherlands), are surgically castrated via removal of the ovaries. During the experiment, rats are maintained in separate plastic cages at 12 hour light/dark cycles and allowed free access to food (Purina chow) and water.
Animals are randomly allocated to one of five groups, each consisting of 10 rats, which, starting three days after ovariectomy and ending at autopsy, receive placebo or estetrol treatment during the experiment as follows: • Group 1 animals receiving placebo oral treatment with 3.0 ml/kg/day vehicle (20% wt/vol solution of hydroxypropyl-beta-cyclodextrin in water); • Group 2 animals receiving estetrol orally at a single daily dose of 0.1 mg/kg; • Group 3 animals receiving estetrol orally at a single daily dose of 0.3 mg/kg; • Group 4 animals receiving estetrol orally at a single daily dose of 1.0 mg/kg; • Group 5 animals receiving estetrol orally at a single daily dose of 3.0 mg/kg. […]

[4] = Agonistic models of in vivo estrogenicity (bone resorption, hot flushing, vaginal cornification), previous studies; details: for in vivo estrogenicity in preventing bone resorption, prevention of hot flushing and vaginal cornification: 0.125 mg/kg/day EE compared with […] E4; for potency in agonistic models of preventing bone resorption, prevention of hot flushing and vaginal cornification: […] EE compared with 0.5 mg/kg/day E4
[5] = system: DMBA-induced mammary tumours; details: literature; cited from earlier work

Sequence of human ERα (P03372 whole entry): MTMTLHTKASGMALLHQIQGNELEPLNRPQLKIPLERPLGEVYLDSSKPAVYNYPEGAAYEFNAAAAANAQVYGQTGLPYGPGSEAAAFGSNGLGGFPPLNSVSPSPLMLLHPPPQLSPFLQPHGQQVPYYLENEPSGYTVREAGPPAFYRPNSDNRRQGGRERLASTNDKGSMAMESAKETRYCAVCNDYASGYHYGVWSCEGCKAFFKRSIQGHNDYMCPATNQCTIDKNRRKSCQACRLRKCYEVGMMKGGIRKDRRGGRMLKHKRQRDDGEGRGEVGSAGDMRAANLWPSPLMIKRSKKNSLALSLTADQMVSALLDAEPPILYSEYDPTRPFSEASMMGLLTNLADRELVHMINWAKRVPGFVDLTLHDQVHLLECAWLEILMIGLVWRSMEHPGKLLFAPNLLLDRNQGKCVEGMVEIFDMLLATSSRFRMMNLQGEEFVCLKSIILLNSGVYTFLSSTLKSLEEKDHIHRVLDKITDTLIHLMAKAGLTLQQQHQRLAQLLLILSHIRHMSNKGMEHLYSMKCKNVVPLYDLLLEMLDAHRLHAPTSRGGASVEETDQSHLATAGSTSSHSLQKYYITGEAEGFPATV

C[C@]12CC[C@@H]3c4ccc(O)cc4CC[C@H]3[C@@H]1CC[C@@H]2O [E2, 17β-estradiol]
protection in the DMH model [1]: confers protection

C[C@]12CC[C@@H]3c4ccc(O)cc4CC[C@H]3[C@@H]1[C@@H](O)[C@@H](O)[C@@H]2O [E4, 1,3,5(10)-estratrien-3,15α,16α,17β-tetrol]
Relative ERα/ERβ preference (human ERα): 400%
preventing growth of DMBA-induced tumours, compared with tamoxifen ([2]; E4 […] vs tamoxifen 3 mg/kg/day orally): as effective as tamoxifen
number of malignant tumours [3]: declines as a function of increasing the daily oral estetrol dose
in vivo estrogenicity in preventing bone resorption, prevention of hot flushing and vaginal cornification [4]: equipotency
potency in agonistic models of preventing bone resorption, prevention of hot flushing and vaginal cornification [4]: equipotency

C#C[C@]1(O)CC[C@H]2[C@@H]3CCc4cc(O)ccc4[C@H]3CC[C@@]21C [EE, 17α-ethinylestradiol]
in vivo estrogenicity in preventing bone resorption, prevention of hot flushing and vaginal cornification [4]: equipotency
potency in agonistic models of preventing bone resorption, prevention of hot flushing and vaginal cornification [4]: equipotency

CC/C(=C(\c1ccccc1)c1ccc(OCCN(C)C)cc1)c1ccccc1 [tamoxifen]
anti-tumour treatment in the DMBA model [5]: effective anti-tumour treatments
development of mammary tumours ([2]; tamoxifen 3 mg/kg/day orally, 8 weeks): inhibiting the development of mammary tumours
